Columns and labels:
Assay type in all cases: cell-based
PfNT1 = target: T1, PfNT1 (Plasmodium falciparum, UniProt Q8IDM6); assay: cell-based; conditions: trans-stimulation, solute 45 mM injected (estimated intracellular)
T1 construct: expressed in transfected cells; host or cells: Xenopus laevis oocytes (stage V-VI), cRNA-injected
Outline: (§1)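 Oocytes (ten per treatment, ≥4 independent frogs/days) were preloaded by injecting VF-6 in 25 nL ND96 at pH 5.0, 5.5, 6.0 or 7.0, or Na^+-free choline buffer, then uptake run 1.5 h, 27.5 °C, ND96 pH 5.5 by default. Internal concentrations assumed ~400 nL oocyte volume.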

PfCRT^3D7 = PfCRT^3D7 (Plasmodium falciparum, UniProt Q8IBZ9); assay: cell-based; conditions: for [3H]CQ transport, PfCRT3D7 (% PfCRT3D7 control): trans-stimulation, solute 45 mM injected (estimated intracellular); for PfCRT-mediated [3H]CQ transport, trans-stimulation (% PfCRT3D7 control): PfCRT3D7 oocytes, normalised to oocyte type control
Sequence of PfCRT^3D7 (Q8IBZ9 59-398): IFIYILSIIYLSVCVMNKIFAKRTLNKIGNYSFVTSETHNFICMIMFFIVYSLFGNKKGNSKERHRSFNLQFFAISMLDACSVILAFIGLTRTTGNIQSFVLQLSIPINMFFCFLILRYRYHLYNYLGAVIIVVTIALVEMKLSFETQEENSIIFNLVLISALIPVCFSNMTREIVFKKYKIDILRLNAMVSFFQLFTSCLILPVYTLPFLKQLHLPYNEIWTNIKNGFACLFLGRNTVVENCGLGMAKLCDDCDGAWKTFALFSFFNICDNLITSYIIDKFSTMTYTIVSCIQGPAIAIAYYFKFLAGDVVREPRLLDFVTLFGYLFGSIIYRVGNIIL
Outline: as §1

PfCRT^Ecu1110 [1] = target: T2, PfCRT^Ecu1110 (Plasmodium falciparum, UniProt Q9N623, A220S/I356L/K76T/N326D); assay: [3H]CQ uptake into Xenopus oocytes, cis-inhibition by unlabelled solute; conditions: for PfCRT-mediated [3H]CQ transport, cis-inhibition (% PfCRTEcu1110 control): PfCRTEcu1110 oocytes, background [3H]CQ accumulation subtracted, normalised to oocyte type control; for [3H]CQ transport (% PfCRTEcu1110 control), cis-inhibition, PfCRTEcu1110: PfCRT-mediated component (background subtracted), sheet title says normalised to PfCRTDd2 control, mean ± SEM, SEM
T2 sequence (Q9N623 whole entry A220S/I356L/K76T/N326D): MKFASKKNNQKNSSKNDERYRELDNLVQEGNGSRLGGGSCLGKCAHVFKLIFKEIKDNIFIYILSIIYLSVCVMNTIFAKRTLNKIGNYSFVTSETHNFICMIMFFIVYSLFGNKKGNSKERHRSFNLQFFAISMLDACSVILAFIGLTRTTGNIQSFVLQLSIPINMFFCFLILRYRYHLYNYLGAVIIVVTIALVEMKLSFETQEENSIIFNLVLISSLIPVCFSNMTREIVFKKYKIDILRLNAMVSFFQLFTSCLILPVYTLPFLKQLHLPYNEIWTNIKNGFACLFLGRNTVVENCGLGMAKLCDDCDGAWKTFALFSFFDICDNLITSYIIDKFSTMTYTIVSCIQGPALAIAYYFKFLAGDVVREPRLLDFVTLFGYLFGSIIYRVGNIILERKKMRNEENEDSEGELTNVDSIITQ
Outline: (§2)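 Inward transport into oocyte cytosol from pH 5.5 medium models PfCRT efflux from the acidic digestive vacuole. Incubation 1.5 h, 27.5 °C; termination by ice-cold washes; lysate radioactivity counted.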

PfCRT^Dd2 [2] = target: T3, PfCRT^Dd2 (Plasmodium falciparum, UniProt Q9N623, A220S/I356T/K76T/M74I/N326S/N75E/Q271E/R371I); assay: as above; conditions: PfCRTDd2 oocytes, background [3H]CQ accumulation subtracted, normalised to oocyte type control
T3 sequence (Q9N623 whole entry A220S/I356T/K76T/M74I/N326S/N75E/Q271E/R371I): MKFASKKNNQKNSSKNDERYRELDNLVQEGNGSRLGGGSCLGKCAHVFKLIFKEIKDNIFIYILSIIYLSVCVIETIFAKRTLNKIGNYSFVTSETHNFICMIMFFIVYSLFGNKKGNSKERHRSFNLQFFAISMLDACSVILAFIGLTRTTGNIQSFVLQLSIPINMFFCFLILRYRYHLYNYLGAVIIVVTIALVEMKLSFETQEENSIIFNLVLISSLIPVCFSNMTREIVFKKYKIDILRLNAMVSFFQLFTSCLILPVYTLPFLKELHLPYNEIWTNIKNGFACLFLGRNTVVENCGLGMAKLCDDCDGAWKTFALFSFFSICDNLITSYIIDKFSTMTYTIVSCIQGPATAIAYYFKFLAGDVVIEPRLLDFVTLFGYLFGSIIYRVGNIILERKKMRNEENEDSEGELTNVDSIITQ
Outline: as §2

PfCRT^Ecu1110 [3] = target: T2, PfCRT^Ecu1110; assay: cell-based; conditions: for PfCRT-mediated [3H]CQ transport, trans-stimulation (% PfCRTEcu1110 control): PfCRTEcu1110 oocytes, normalised to oocyte type control; for [3H]CQ transport (% PfCRTDd2 control), trans-stimulation, PfCRTEcu1110: PfCRT-mediated component (background subtracted), sheet title says normalised to PfCRTDd2 control, mean ± SEM, SEM
Outline: as §1

PfCRT^Dd2 [4] = target: T3, PfCRT^Dd2; assay: cell-based; conditions: for PfCRT-mediated [3H]CQ transport, trans-stimulation (% PfCRTDd2 control): PfCRTDd2 oocytes, normalised to oocyte type control; for [3H]CQ transport (% PfCRTDd2 control), trans-stimulation, PfCRTDd2: PfCRT-mediated component (background subtracted), mean ± SEM, SEM
Outline: as §1

[5] = [test solute]i = 5 mM (intracellular)
[6] = [test solute]i = 45 mM (intracellular; 30 mM for some solutes due to solubility)
[7] = [test solute]i = 5 mM (injected)
[8] = [test solute]i = 45 mM (30 mM for some solutes due to solubility)

T1 sequence (Q8IDM6 whole entry): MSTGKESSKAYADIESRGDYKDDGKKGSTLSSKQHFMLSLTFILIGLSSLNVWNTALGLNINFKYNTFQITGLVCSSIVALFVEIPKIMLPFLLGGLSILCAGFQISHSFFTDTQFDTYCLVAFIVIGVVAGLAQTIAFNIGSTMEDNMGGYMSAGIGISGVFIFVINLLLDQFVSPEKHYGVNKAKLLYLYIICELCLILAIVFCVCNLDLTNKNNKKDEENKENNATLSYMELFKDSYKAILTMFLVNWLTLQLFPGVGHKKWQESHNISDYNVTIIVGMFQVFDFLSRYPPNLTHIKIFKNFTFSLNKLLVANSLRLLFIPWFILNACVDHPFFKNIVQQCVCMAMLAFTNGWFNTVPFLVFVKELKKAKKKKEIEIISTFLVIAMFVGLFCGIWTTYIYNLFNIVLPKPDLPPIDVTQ

Row | Substance | [3H]CQ transport, PfNT1 (% PfCRTDd2 control) (PfNT1; Experiment 1) | [3H]CQ transport, PfNT1 (% PfCRTDd2 control) (PfNT1; Experiment 2) | [3H]CQ transport, PfNT1 (% PfCRTDd2 control) (PfNT1; Experiment 3) | [3H]CQ transport, PfNT1 (% PfCRTDd2 control) (PfNT1; Experiment 4) | [3H]CQ transport, PfCRT3D7 (% PfCRT3D7 control) (PfCRT^3D7; Experiment 1) | [3H]CQ transport, PfCRT3D7 (% PfCRT3D7 control) (PfCRT^3D7; Experiment 2) | [3H]CQ transport, PfCRT3D7 (% PfCRT3D7 control) (PfCRT^3D7; Experiment 3) | [3H]CQ transport, PfCRT3D7 (% PfCRT3D7 control) (PfCRT^3D7; Experiment 4) | PfCRT-mediated [3H]CQ transport, cis-inhibition (% PfCRTEcu1110 control) (PfCRT^Ecu1110 [1]; [test solute] = 0.5 mM) | PfCRT-mediated [3H]CQ transport, cis-inhibition (% PfCRTEcu1110 control) (PfCRT^Ecu1110 [1]; [test solute] = 1 mM) | PfCRT-mediated [3H]CQ transport, cis-inhibition (% PfCRTEcu1110 control) (PfCRT^Ecu1110 [1]; [test solute] = 2 mM) | PfCRT-mediated [3H]CQ transport, cis-inhibition (% PfCRTDd2 control) (PfCRT^Dd2 [2]; [test solute] = 0.5 mM) | PfCRT-mediated [3H]CQ transport, cis-inhibition (% PfCRTDd2 control) (PfCRT^Dd2 [2]; [test solute] = 1 mM) | PfCRT-mediated [3H]CQ transport, cis-inhibition (% PfCRTDd2 control) (PfCRT^Dd2 [2]; [test solute] = 2 mM) | PfCRT-mediated [3H]CQ transport, trans-stimulation (% PfCRTEcu1110 control) (PfCRT^Ecu1110 [3]; [5]) | PfCRT-mediated [3H]CQ transport, trans-stimulation (% PfCRTEcu1110 control) (PfCRT^Ecu1110 [3]; [6]) | PfCRT-mediated [3H]CQ transport, trans-stimulation (% PfCRTDd2 control) (PfCRT^Dd2 [4]; [5]) | PfCRT-mediated [3H]CQ transport, trans-stimulation (% PfCRTDd2 control) (PfCRT^Dd2 [4]; [6]) | PfCRT-mediated [3H]CQ transport, trans-stimulation (% PfCRT3D7 control) (PfCRT^3D7; [5]) | PfCRT-mediated [3H]CQ transport, trans-stimulation (% PfCRT3D7 control) (PfCRT^3D7; [6]) | also measured
1 | AHAGEYGAEALE [AE-12] | 2.23 % PfCRTDd2 control | 2.37 % PfCRTDd2 control | 2.71 % PfCRTDd2 control | 2.43 % PfCRTDd2 control | 100.93 % PfCRT3D7 control | 94.28 % PfCRT3D7 control | 100.75 % PfCRT3D7 control | 102.32 % PfCRT3D7 control |  |  |  |  |  |  |  |  |  |  |  |  | 
2 | DLHAHKLR [DR-8] | 3.43 % PfCRTDd2 control | 3.47 % PfCRTDd2 control | 3.21 % PfCRTDd2 control | 3.51 % PfCRTDd2 control | 184.56 % PfCRT3D7 control | 199.32 % PfCRT3D7 control | 173.32 % PfCRT3D7 control | 194.32 % PfCRT3D7 control | 58 ± 1.2 % PfCRTEcu1110 control | 42 ± 2.6 % PfCRTEcu1110 control | 28 ± 2.4 % PfCRTEcu1110 control | 47 ± 3.9 % PfCRTDd2 control | 31 ± 2.1 % PfCRTDd2 control | 12 ± 0.9 % PfCRTDd2 control | 130 ± 3.3 % PfCRTEcu1110 control | 139 ± 3.7 % PfCRTEcu1110 control | 100 ± 2.9 % PfCRTDd2 control | 110 ± 3.7 % PfCRTDd2 control | 130 ± 5.2 % PfCRT3D7 control | 181 ± 5.2 % PfCRT3D7 control | 
3 | YPWTQ [YQ-5] |  |  |  |  |  |  |  |  | 72 ± 6.9 % PfCRTEcu1110 control | 61 ± 1.4 % PfCRTEcu1110 control | 49 ± 2.5 % PfCRTEcu1110 control | 67 ± 2.2 % PfCRTDd2 control | 51 ± 3.2 % PfCRTDd2 control | 27 ± 1.1 % PfCRTDd2 control | 99 ± 3.5 % PfCRTEcu1110 control | 98 ± 2.2 % PfCRTEcu1110 control | 97 ± 4.6 % PfCRTDd2 control | 96 ± 2.7 % PfCRTDd2 control | 96 ± 3.5 % PfCRT3D7 control | 97 ± 3.7 % PfCRT3D7 control | [3H]CQ transport (% PfCRTEcu1110 control), cis-inhibition, PfCRTEcu1110 (PfCRT^Ecu1110 [1]; [test solute] = 0.5 mM): 23 ± 0.4 % PfCRTEcu1110 control; [3H]CQ transport (% PfCRTEcu1110 control), cis-inhibition, PfCRTEcu1110 (PfCRT^Ecu1110 [1]; [test solute] = 1 mM): 19 ± 0.3 % PfCRTEcu1110 control; [3H]CQ transport (% PfCRTEcu1110 control), cis-inhibition, PfCRTEcu1110 (PfCRT^Ecu1110 [1]; [test solute] = 2 mM): 15 ± 0.5 % PfCRTEcu1110 control; [3H]CQ transport (% PfCRTDd2 control), trans-stimulation, PfCRTEcu1110 (PfCRT^Ecu1110 [3]; [7]): 30 ± 1.0 % PfCRTEcu1110 control; [3H]CQ transport (% PfCRTDd2 control), trans-stimulation, PfCRTEcu1110 (PfCRT^Ecu1110 [3]; [8]): 30 ± 1.3 % PfCRTEcu1110 control; [3H]CQ transport (% PfCRTDd2 control), trans-stimulation, PfCRTDd2 (PfCRT^Dd2 [4]; [7]): 97 ± 4.6 % PfCRTDd2 control; [3H]CQ transport (% PfCRTDd2 control), trans-stimulation, PfCRTDd2 (PfCRT^Dd2 [4]; [8]): 96 ± 2.7 % PfCRTDd2 control

From publication PMC7413254 (Nature Communications, 2020)
